Assay in all cases: DTP human tumour cell line panel, 48 h
In test [1] the test system is CAKI-1 renal.
The subject of test [2] is COLO 205 colon.
For test [3], the system named is EKVX NSCLC.
The test system of test [4] is HCT-15 colon.
Test [5] deals with HOP-62 NSCLC.
In test [6] the test system is IGROV1 ovarian.
For test [7], the system named is LOX IMVI melanoma.
Test [8] deals with M14 melanoma.
For test [9], the system named is MDA-N.
Test [10] concerns MOLT-4 leukemia.
Test [11] has as its system NCI-H522 lung.
Test [12] relates to OVCAR-4 ovarian.
Test [13] deals with RPMI-8226 leukemia.
The subject of test [14] is SR leukemia.
The subject of test [15] is T-47D breast.
For test [16], the system named is U251 CNS.
Test [17] relates to HCC-2998 colon.

Values joined by “and” are separate entries in the source; they are usually repeats but may differ in a detail not shown here. Equal values may be shown once.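 Step 1: Grow cells in 96-well plates. Step 2: Expose to compound for 48 hours at 5 concentrations. Step 3: Interpolate endpoints linearly; if unreached, use highest concentration. GI50: concentration for 50% inhibition of growth. The concentration for full growth arrest is given as TGI.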 Some results are limits rather than exact numbers.

From PubChem BioAssay (NCI) come the findings set out here.

What is called TGI is the concentration at which net growth stops. Read a low TGI as more potent growth arrest. One may read the GI50 as the concentration that inhibits growth by half.

As to `Cc1cc(C)n(CN(Cn2nc(C)cc2C)c2ccccc2)n1`, the TGI was more than 100 µM in test [1]; 28.1 µM in test [2]; 72.8 µM in test [3]; 50.2 µM in test [4]; 66.8 µM in test [5]; 95.2 µM in test [6]. Moreover, the TGI in [7] came out at 23.8 µM; in test [8] it was 31.1 µM; in [9], 27.6 µM; in test [10], 28.3 µM; in test [11], 52.8 µM; in test [12], 52 µM. Moreover, the TGI in test [13] is 47.6 µM; in test [14], 14.9 µM; in [15], more than 100 µM; in test [16], 44 µM.

In the case of `O=C(N/N=C(/COc1cccc(Cl)c1)N=Cc1cccnc1)c1ccncc1`, the TGI in test [1], in test [2], in test [3], in test [17], in test [4] and in [5] was more than 100 µM each time. Further, the TGI in test [6], in test [7], in [8], in test [9], in test [10] and in test [11] was more than 100 µM throughout. Besides, the TGI in [12], in test [13], in test [15] and in test [16] was more than 100 µM in each case.

For `CC1=CC(C)(C)Nc2ccc(CSc3ccccc3)cc21`, the TGI in [1] is more than 100 µM; in [2] it was 52.8 µM; in test [3], 59.9 µM; in test [17], 45.1 µM; in [4], more than 100 µM; in test [5], 80 µM. The TGI was more than 100 µM in [6]; 82.3 µM in test [7]; 65.2 µM in [8]; 69.9 µM in test [9]; 46.5 µM in [11]; 46.1 µM in test [12]. The results for the concentration for total growth inhibition (TGI) in [13] and in test [16] were 31.2 µM and more than 100 µM, respectively.

For `CCC(=O)NCCc1c2c3c(ccnc3c3ncsc13)-c1ccccc1N2`, the total growth inhibition concentration (TGI) in [1], in test [2], in test [3], in test [4], in test [5] and in test [6] was more than 100 µM in each case. Also, the TGI in test [7] is more than 82.6 µM; in [8], more than 100 µM; in test [9], more than 100 µM; in test [10], more than 64.5 µM; in test [11], 38.4 µM; in test [12] it was more than 100 µM. Further, the values for the concentration for total growth inhibition (TGI) in test [13], in [15] and in [16] were 19.8 µM, more than 100 µM and more than 79.7 µM, respectively.

Turning to `O=C1/C(=C/c2cccs2)NC(=S)N1CN1CCCC(CO)C1` (stereo not given), the TGI in test [2], in test [3], in test [4], in [5], in test [6] and in [7] was more than 100 µM in each case. Moreover, the TGI in test [8], in [9], in [10], in test [12], in test [13] and in test [14] was more than 100 µM each time. The compound also registered a TGI in [16] of more than 100 µM.

For the compound `O=C(Nc1nc(C23CC4CC(CC(C4)C2)C3)cs1)c1cc2c(ccc3ccccc32)oc1=O`, the TGI in test [1], in test [2], in [3], in test [17], in [4] and in [5] was more than 100 µM each time. In addition, the TGI in test [6], in [7], in [9], in test [10], in [11] and in [12] was more than 100 µM in each case. In addition, the TGI in [13], in test [14] and in [16] was more than 100 µM in each case.

As for `CC(=O)Oc1c2oc3cc(O)c(O)cc3c2c(OC(C)=O)c2oc3cc(O)c(O)cc3c12`, the TGI in [1] turned out to be 97.2 µM; in [2], 33.5 µM; in test [3], 40.1 µM; in [17], 40.7 µM; in test [4], 72.3 µM; in test [5], 35.9 µM. The TGI in test [6] was 91.1 µM; in [7], more than 100 µM; in [8], more than 100 µM; in test [9], more than 100 µM; in test [10] it was more than 100 µM; in test [11] it was 35.8 µM. Moreover, the TGI in test [12] is 62.3 µM; in test [14], more than 100 µM; in test [16], 3.44 µM.

As to `O=C(O)CCC(NC(=O)c1ccc(CNc2nc3ccccc3nc2C(=O)O)cc1)C(=O)O` (stereo not given), the concentration for total growth inhibition (TGI) in test [2], in [3], in test [4], in test [5], in test [6] and in test [7] was more than 100 µM throughout. Also, the TGI in test [8], in test [9], in test [10], in [12], in test [13] and in test [14] was more than 100 µM throughout. Moreover, the TGI in test [16] is more than 100 µM.

Consider `C[C@]12CC/C(=N\OCCN3CCCCC3)C=C1CCC1C2CC[C@@]2(C)C1CC[C@]2(C)O` (stereo not given in full), for which the TGI in [1] worked out at 23.7 µM; in [2], 20.9 µM; in test [3] it was 44.6 µM; in test [17], 22.1 µM; in test [4], 27.6 µM; in test [5] it was 43.7 µM. Moreover, the TGI in test [6] was 35.5 µM; in test [7] it was 15.7 µM; in test [8], 37.7 µM; in [9], 11.7 µM; in test [10], 6.84 µM; in [11] it was 7.52 µM. The TGI was determined as 76 µM in test [12], 31.5 µM in test [13], 97.2 µM in [15] and 26.6 µM in [16].

On to `CCCCCCCCCc1c(O)c(O)c(CCCCCCCCC)c(CCCCCCCCC)c1CCCCCCCCC`, for which the TGI in [1], in [2], in test [3], in [17], in [4] and in test [5] was more than 100 µM throughout. For the same compound, the TGI in test [6], in [7], in test [8], in test [9], in test [10] and in test [11] was more than 100 µM throughout. Further, the TGI in [12], in test [13], in test [15] and in test [16] was more than 100 µM in each case.

For `CC(C)CN(CC#N)CC(C)C`, the TGI in [1], in test [2], in [3], in [17], in test [4] and in test [5] was more than 100 µM in each case. The TGI in test [6], in [7], in test [8], in test [9], in test [10] and in test [11] was more than 100 µM each time. Also, the TGI in test [12], in [13], in [15] and in test [16] was more than 100 µM each time.

For `O=C(O)C12C3CCC(O3)C1(C(=O)O)C1CCC2O1` (stereo not given), the TGI in [1], in test [2], in test [17], in test [4], in [5] and in test [6] was more than 100 µM each time. Besides, the TGI in test [7] was more than 100 µM; in test [8], 29.6 µM and > 100 µM; in test [9], more than 100 µM; in test [10], more than 100 µM; in test [11] it was more than 100 µM; in test [13] it was more than 100 µM. Also, the TGI in test [15] and in [16] was more than 100 µM each time. Besides, the GI50 in test [8] is 16.1 µM and > 100 µM; in test [9], 31.3 µM and > 100 µM.

Take `Cn1c(-c2ccc(N=NNc3ccc(-c4n[nH]c(=S)n4C)cc3)cc2)n[nH]c1=S`: the TGI is more than 100 µM in test [2]; more than 100 µM in [3]; more than 100 µM in test [4]; 69.4 µM in [5]; 46.4 µM in [6]; more than 100 µM in test [7]. Also, the TGI in test [8], in test [9], in [10], in [11], in [12] and in test [14] was more than 100 µM throughout. Also, the values for the TGI in [15] and in test [16] were 8.28 µM and 28.9 µM, respectively.

For the compound `NC(N)=NC(N)=Nc1ccccc1` (tested in a mixture with another compound), the TGI in test [1], in [2], in test [3], in test [17], in test [4] and in test [5] was more than 100 µM in each case. Moreover, the TGI in [6], in [7], in test [8], in [9], in test [11] and in test [12] was more than 100 µM throughout. Besides, the TGI in test [15] was 81.4 µM; in test [16], more than 100 µM.

Regarding `CCOC(=O)c1[nH]c2nc(SC)nc(Nc3ccccc3Cl)c2c1N`, the TGI in test [1] was more than 100 µM; in test [2], more than 100 µM; in [17], more than 100 µM; in [4], more than 100 µM; in test [5] it was 41.3 µM; in test [6], 86.2 µM. The TGI is 44.8 µM in test [7]; more than 100 µM in test [8]; more than 100 µM in test [9]; 30.5 µM in test [10]; 53.4 µM in [11]; 60.3 µM in test [12]. The TGI is 43.5 µM in test [13], 33.9 µM in test [15] and 31 µM in [16].

Turning to `C=C1CC(COc2ccc3c(C)cc(=O)oc3c2)(c2ccccc2)OC1=O` (stereo not given), the TGI was found to be 3.55 µM in test [1]; 2.76 µM in test [2]; 25.2 µM in test [3]; 10.1 µM in test [17]; 3.62 µM in test [4]; 31 µM in [5]. In addition, the TGI amounted to 3.57 µM in [6]; 3.1 µM in test [7]; 2.66 µM in [8]; 5.78 µM in test [9]; 6.77 µM in test [10]; 3.37 µM in test [11]. The TGI is 1.62 µM in test [13], more than 31.6 µM in test [14] and 23.6 µM in test [16].

`COC(=O)c1cc(C)n(CN(Cc2ccccc2)Cn2nc(C(=O)OC)cc2C)n1`: the TGI in [1] is more than 100 µM; in test [2], more than 78.1 µM; in test [3] it was more than 100 µM; in test [4], more than 58.2 µM; in test [5], more than 100 µM; in test [6], more than 100 µM. Besides, the TGI in [7], in test [8], in test [9], in test [10], in test [11] and in test [12] was more than 100 µM in each case. Also, the TGI in [13] was more than 62.9 µM; in test [15] it was more than 100 µM; in test [16], more than 100 µM.

With `BrCC(Br)(c1ccccc1)c1ccccc1-c1cc(-c2ccccc2)cc(-c2ccccc2)n1` (stereo not given), the TGI in [1] is 23.4 µM; in test [2] it was 2.81 µM; in test [3] it was more than 100 µM; in test [17], 9.8 µM; in [4], 30 µM; in test [5] it was 23.2 µM. Moreover, the total growth inhibition concentration (TGI) in test [6] came out at 19.4 µM; in test [7], 5.88 µM; in [8], 21.6 µM; in [9], 10.9 µM; in test [10], 17.3 µM; in test [11], 10.5 µM. The TGI in test [12] is 53.9 µM; in test [13], 18.2 µM; in [14], more than 52.7 µM; in [16], 5.85 µM.
